# Assay results from US20130165472A1, “HETEROARYLS AND USES THEREOF” (MILLENNIUM PHARMACEUTICALS, INC., priority 2011, published 2013).
# Biological target: T1, VPS34 (Homo sapiens, UniProt Q8NEB9)
# T1 construct: GST (N); host or cells: SF9 insect cells (baculovirus)
# Assay: Human VPS34 enzyme assay (Adapta TR-FRET)
# Assay type: biochemical
# Conditions: for VPS34 Percent Inhibition: at a 1.11 μM concentration
# Method: VPS34 (accession number GB:BC033004) was cloned into pDEST20-Thombin as N-terminal GST tagged fusion proteins using the Gateway system (Invitrogen, catalog#11804-013). The sequences were verified before recombinant protein expression using the Baculovirus Expression System with Gateway® Technology.
# For expression VPS34 was infected at 1MOI in SF9 cells and harvested 72 hours post infection.
# For purification, VPS34 is purified by Glutathione Sepharose 4 Fast Flow (GE Healthcare #17-5132-03) followed by HiTrap Q (GE Healthcare #17-1153-01).
# Human VPS34 Enzyme Assay Method
# […] compounds in DMSO are added to wells of a 384 well microtitre plate (Greiner 780076). At room temperature: 5 ul VPS34 reaction buffer (Invitrogen Assay Buffer Q (diluted 1 in 5 with nanopure water) plus 2 mM DTT and 2 mM MnCl2) containing ATP (20 uM, Promega) and 200 uM PI-PS substrate (Invitrogen PV5122) is added followed immediately by 5 ul VPS34 reaction buffer (as above) containing VPS34 (5 nM, Millennium Protein Sciences Group) and the mixture is incubated with shaking at room temperature for 1 hour. Then 5 ul VPS34 stop-detect mix (as per Invitrogen Adapta Assay kit (PV5009) instructions (contains kinase quench buffer, TR-FRET buffer, Adapta Eu anti-ADP antibody and Alexa Fluor 647 ADP tracer)) is added to quench the reaction. The plates are then incubated for 30 minutes at room temperature with shaking and then read on a BMG PheraStar Plus reader.
# For the assay methods described above, test compound percent inhibition, at various concentrations, is calculated relative to control (DMSO and EDTA) treated samples. Compound concentration versus percent inhibition curves are fitted to generate IC50 values. One skilled in the art will appreciate that the values generated either as percentage inhibition at a single concentration or IC50 values are subject to experimental variation.
# 3) VPS34 is assayed using Adapta™ Universal Kinase Assay Kit (Invitrogen).
# T1 sequence (Q8NEB9 whole entry): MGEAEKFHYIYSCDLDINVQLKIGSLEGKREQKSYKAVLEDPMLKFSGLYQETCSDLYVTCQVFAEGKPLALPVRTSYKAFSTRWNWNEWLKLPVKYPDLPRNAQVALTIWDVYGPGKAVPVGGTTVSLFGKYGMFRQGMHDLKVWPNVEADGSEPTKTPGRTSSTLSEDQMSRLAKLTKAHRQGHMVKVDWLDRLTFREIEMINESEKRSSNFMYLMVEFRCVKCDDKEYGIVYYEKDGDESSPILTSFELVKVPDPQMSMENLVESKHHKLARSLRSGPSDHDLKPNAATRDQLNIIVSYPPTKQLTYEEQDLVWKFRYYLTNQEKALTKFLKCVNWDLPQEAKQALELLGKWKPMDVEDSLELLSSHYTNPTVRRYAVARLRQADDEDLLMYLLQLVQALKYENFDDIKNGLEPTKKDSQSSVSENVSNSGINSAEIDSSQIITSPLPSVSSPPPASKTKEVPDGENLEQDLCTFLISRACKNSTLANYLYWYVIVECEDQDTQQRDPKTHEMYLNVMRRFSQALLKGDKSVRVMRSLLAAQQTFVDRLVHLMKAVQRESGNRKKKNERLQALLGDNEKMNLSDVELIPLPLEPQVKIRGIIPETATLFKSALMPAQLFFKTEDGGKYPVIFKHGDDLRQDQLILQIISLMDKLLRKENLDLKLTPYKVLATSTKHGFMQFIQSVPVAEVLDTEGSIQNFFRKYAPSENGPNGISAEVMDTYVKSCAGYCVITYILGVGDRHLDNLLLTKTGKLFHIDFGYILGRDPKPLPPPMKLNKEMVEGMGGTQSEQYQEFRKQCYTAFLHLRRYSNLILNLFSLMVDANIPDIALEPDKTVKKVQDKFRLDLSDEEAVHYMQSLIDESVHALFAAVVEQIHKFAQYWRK
SMILES,IC50 [nM],VPS34 Percent Inhibition
"CC(=O)Nc1cc(-c2cn(-c3ccc(Cl)cc3Cl)c(-c3ccn[nH]3)n2)c(C)cn1 [Compound I-16, N-{4-[1-(2,4-dichlorophenyl)-2-(1H-pyrazol-5-yl)-1H-imidazol-4-yl]-5-methylpyridin-2-yl}acetamide]",1000 to 3000,35
"CC(=O)Nc1cc2c(ccn3c(C(N)=O)c(-c4ccc(Cl)cc4Cl)nc23)cn1 [Compound I-24, 9-acetamido-2-(2,4-dichlorophenyl)imidazo[2,1-a][2,6]naphthyridine-3-carboxamide]",< 300,>99
"CC(=O)Nc1cc(-c2cn(-c3ccc(Cl)cc3Cl)c(-c3ccn[nH]3)n2)ccn1 [Compound I-10, N-{4-[1-(2,4-dichlorophenyl)-2-(1H-pyrazol-5-yl)-1H-imidazol-4-yl]pyridin-2-yl}acetamide]",1000 to 3000,27
"CC(=O)Nc1cc(-c2nc(-c3ccc(Cl)cc3Cl)c(C(N)=O)[nH]2)ccn1 [Compound I-19, 2-(2-acetamidopyridin-4-yl)-4-(2,4-dichlorophenyl)-1H-imidazole-5-carboxamide]",1000 to 3000,28
"CC(=O)Nc1cc(-c2cn(-c3ccccn3)c(-c3ccccc3Cl)n2)ccn1 [Compound I-105, N-{4-[2-(2-chlorophenyl)-1-(pyridin-2-yl)-1H-imidazol-4-yl]pyridin-2-yl}acetamide]",300 to 1000,55
